From US4497806A, “Triorganotin compounds, antifungal and antibacterial compositions containing same, and method of using same” (priority 1983, dated 1985)

Legend:
[1] = test system: Aspergillus niger (ATCC 12845); assay: Antifungal activity, agar plate growth inhibition; assay type: cell-based; conditions: 14 days; also: key: -: no inhibition of growth; +: partial inhibition; 2+: complete inhibition
Method: (§1) Dilutions of the sterile solutions were prepared and added to liquified potato dextrose agar (Difco) to yield final concentrations of 100, 10 and 1 μg/ml. The agar, containing the appropriate organotin compound, was poured into sterile petri dishes and allowed to solidify over night. The agar surface was inoculated centrally with a 2 mm^2 portion of the growth from a ten-day-old culture of each fungus of the group consisting of Aspergillus niger, Chaetomium globosum, Cladosporium carpophilum, Fusarium moniliforme, Myrotheium verrucaria, Penicillium notatum, Rhizopus stolonifer, Trichoderma viride and Trichophyton mentagrophytes, or from a two-day-old culture of Saccharomyces cerevisiae. Inoculated plates were incubated for 14 days and observations of growth inhibition were made by measuring the diameters of the colonies present on the agar surface.
(§2) A solvent was included in all evaluations, as were growth controls for all fungal species.
(§3) The following compounds were tested for comparative purposes: [drawing 6] These compounds were tested for antifungal activity in the same manner as the triorganotin 5-nitro-2-furoates of the present invention.

[2] = test system: Chaetomium globosum (ATCC 6205); assay: Antifungal activity, agar plate growth inhibition; assay type: cell-based; conditions: 14 days; also: key: -: no inhibition of growth; +: partial inhibition; 2+: complete inhibition
Method: as §1, §2, §3

[3] = test system: Fusarium moniliforme (ATCC 10052); assay: Antifungal activity, agar plate growth inhibition; assay type: cell-based; conditions: 14 days; also: key: -: no inhibition of growth; +: partial inhibition; 2+: complete inhibition
Method: as §1, §2, §3

[4] = test system: Myrothecium verrucaria (ATCC 9095); assay: Antifungal activity, agar plate growth inhibition; assay type: cell-based; conditions: 14 days; also: key: -: no inhibition of growth; +: partial inhibition; 2+: complete inhibition
Method: as §1, §2, §3

[5] = test system: Penicillium notatum (ATCC 9179); assay: Antifungal activity, agar plate growth inhibition; assay type: cell-based; conditions: 14 days; also: key: -: no inhibition of growth; +: partial inhibition; 2+: complete inhibition
Method: as §1, §2, §3

[6] = test system: Rhizopus stolonifer (ATCC 10404); assay: Antifungal activity, agar plate growth inhibition; assay type: cell-based; conditions: 14 days; also: key: -: no inhibition of growth; +: partial inhibition; 2+: complete inhibition
Method: as §1, §2, §3

[7] = test system: Saccharomyces cerevisiae (ATCC 9896); assay: Antifungal activity, agar plate growth inhibition; assay type: cell-based; conditions: 14 days; also: key: -: no inhibition of growth; +: partial inhibition; 2+: complete inhibition
Method: as §1, §2, §3

[8] = test system: Trichoderma viride (ATCC 8678); assay: Antifungal activity, agar plate growth inhibition; assay type: cell-based; conditions: 14 days; also: key: -: no inhibition of growth; +: partial inhibition; 2+: complete inhibition
Method: as §1, §2, §3

[9] = test system: Trichophyton mentagrophytes (ATCC 9129); assay: Antifungal activity, agar plate growth inhibition; assay type: cell-based; conditions: 14 days; also: key: -: no inhibition of growth; +: partial inhibition; 2+: complete inhibition
Method: as §1, §2, §3

[10] = test system: Cladosporium carpophilium (ATCC 12117); assay: Antifungal activity, agar plate growth inhibition; assay type: cell-based, Cladosporium carpophilum; conditions: 14 days; also: key: -: no inhibition of growth; +: partial inhibition; 2+: complete inhibition
Method: as §1, §2, §3

Escherichia coli = assay: Antibacterial activity, agar growth inhibition; assay type: cell-based; conditions: for growth inhibition: Gram-negative, 24 hours at 37° C.
Method: The agar was also needed with a 1:100 dilution of an 18-hour old culture of the desired bacterial species in sterile distilled water. The plates were incubated for 24 hours at 37° C. with each bacterial strain. Observations of bacterial growth inhibition were made following the appropriate incubation period.
A solvent control was included in all evaluations, as were growth controls for all bacteria species.
These compounds were tested for antibacterial activity in the same manner as the triorganotin 5-nitro-2-furoates of the present invention.
All of the bacteria tested were obtained from the culture collection of the Department of Biological Sciences, St. John's University.

Row | Compound | growth inhibition ([1]; 1 μg/ml) | growth inhibition ([1]; 10 μg/ml) | growth inhibition ([1]; 100 μg/ml) | growth inhibition ([2]; 1 μg/ml) | growth inhibition ([2]; 10 μg/ml) | growth inhibition ([2]; 100 μg/ml) | growth inhibition ([3]; 1 μg/ml) | growth inhibition ([3]; 10 μg/ml) | growth inhibition ([3]; 100 μg/ml) | growth inhibition ([4]; 1 μg/ml) | growth inhibition ([4]; 10 μg/ml) | growth inhibition ([4]; 100 μg/ml) | growth inhibition ([5]; 1 μg/ml) | growth inhibition ([5]; 10 μg/ml) | growth inhibition ([5]; 100 μg/ml) | growth inhibition ([6]; 1 μg/ml) | growth inhibition ([6]; 10 μg/ml) | growth inhibition ([6]; 100 μg/ml) | growth inhibition ([7]; 1 μg/ml) | growth inhibition ([7]; 10 μg/ml) | other results
1 | N#CN=C(Nc1ccccc1)[S][Sn]([c]1ccccc1)([c]1ccccc1)[c]1ccccc1 [compound 2, N--phenyl, N'--cyano-S--(triphenylstannyl)-isothiourea, reference compound] | - | + | 2+ | - | + | + | - | + | + | - | + | + | - | + | + | - | + | 2+ | - | - | growth inhibition ([7]; 100 μg/ml): -; growth inhibition ([8]; 1 μg/ml): -; growth inhibition ([8]; 10 μg/ml): -; growth inhibition ([8]; 100 μg/ml): +; growth inhibition ([9]; 1 μg/ml): -; growth inhibition ([9]; 10 μg/ml): +; growth inhibition ([9]; 100 μg/ml): +; growth inhibition ([10]; 1 μg/ml): -; growth inhibition ([10]; 10 μg/ml): -; growth inhibition ([10]; 100 μg/ml): -; growth inhibition (in words) (Escherichia coli; 100 μg/ml): partially; growth inhibition (Escherichia coli; 1 μg/ml): -; growth inhibition (Escherichia coli; 10 μg/ml): -
2 | N--nitrophenyl, N--(triphenylstannyl) cyanamide [compound 1, reference compound] | + | + | + | + | + | 2+ | + | + | + | + | + | + | + | + | + | + | + | + | - | - | growth inhibition ([7]; 100 μg/ml): +; growth inhibition ([8]; 1 μg/ml): -; growth inhibition ([8]; 10 μg/ml): +; growth inhibition ([8]; 100 μg/ml): +; growth inhibition ([9]; 1 μg/ml): +; growth inhibition ([9]; 10 μg/ml): +; growth inhibition ([9]; 100 μg/ml): 2+; growth inhibition ([10]; 1 μg/ml): +; growth inhibition ([10]; 10 μg/ml): +; growth inhibition ([10]; 100 μg/ml): +
